Where two headings read alike, the source gives them in different places.
How the values were obtained:
Format in all cases: cell-based, Wistar rats
uterine strips [1] = assay: tissue or blood; conditions: for minimal effective concentration: read-out: concentration at which rhythmic contractions appeared
uterine strips [2] = assay: Effect of inhibitors on electrically-induced uterine contractions (field electrical stimulation)
uterine strips [3] = assay: tissue or blood
uterine strips [4] = system: uterine strips
myometrial strips = assay: Simultaneous measurement of contractile force and [Ca2+]i (Fura-2); conditions: veratridine 60 µM; myometrial fibers loaded with Fura-2; responding strips (10 of 21)
[5] = cumulative concentrations 1 nM-30 µM, strips exposed for 90 min (late response) to 60 µM veratridine

CCN1C[C@]2(COC)[C@H](O)C[C@H](OC)[C@@]34[C@@H]5C[C@@]6(O)[C@H](OC(=O)c7ccccc7)[C@@H]5[C@@](OC(C)=O)([C@@H]([C@H](OC)[C@H]23)[C@@H]14)[C@@H](O)[C@@H]6OC [aconitine]
concentration at which the maximal response was reached (uterine strips [1]): 100 µM
minimal effective concentration (uterine strips [1]): ≥ 100 µM

COc1cc2nc(N3CCN(C(=O)c4ccco4)CC3)nc(N)c2cc1OC [Prazosin, prazosin]
activity at 1 µM (uterine strips [2]; Rattus norvegicus, read-out: contractile area of electrically-induced uterine contractions, % of the previous contraction): 92.3 ± 4%
activity at 1 µM (uterine strips [3]; Rattus norvegicus, 40 min, read-out: contractile area of spontaneous contractions, % of the previous contractile area): 108 ± 9.1%

µ-conotoxin GIIIB
effect on veratridine-induced rhythmic contractions (uterine strips [4]): did not modify

grayanotoxin
concentration at which the maximal response was reached (uterine strips [1]): 30 µM
minimal effective concentration (uterine strips [1]): ≥ 20 µM

C=C(C=O)C[C@@H]1C[C@H](O)[C@]2(C)O[C@@H]3C[C@@H]4O[C@@H]5C[C@]6(C)O[C@]7(C)CC[C@@H]8O[C@@H]9C[C@]%10(C)O[C@@H]%11C(C)=CC(=O)O[C@H]%11C[C@H]%10O[C@H]9C[C@@H](C)[C@H]8O[C@H]7C[C@H]6O[C@H]5C/C=C\[C@H]4O[C@H]3C[C@H]2O1 [brevetoxin-B]
concentration at which the maximal response was reached (uterine strips [1]): 0.03 µM

CCOC(=O)C1=C[C@]2(CC)CCCN3CCc4c(n1c1ccccc41)[C@@H]32 [vinpocetine]
effect on veratridine-induced rhythmic contractions (uterine strips [4]; [5]): did not modify

O=C(NCC1CCCCN1)c1cc(OCC(F)(F)F)ccc1OCC(F)(F)F (stereo not drawn) [flecainide]
effect on veratridine-induced rhythmic contractions (uterine strips [4]; [5]): did not modify

CN1[C@@H]2CC[C@H]1C[C@@H](OC(=O)C(CO)c1ccccc1)C2 (stereo partly drawn) [Atropine, atropine]
contractile area of electrically-induced uterine contractions, % of the previous contraction (uterine strips [2]): 30.3 ± 8.1%
contractile area of spontaneous contractions, % of the previous contractile area (uterine strips [3]): 26.7 ± 2.2%
effect on spontaneous uterine contractions (uterine strips [3]): abolished or almost abolished

COc1ccc(C(=O)O[C@H]2CC[C@@]3(C)[C@@H]4CC[C@H]5[C@]6(O)C[C@H](O)[C@@]7(O)[C@@H](CN8C[C@@H](C)CC[C@H]8[C@@]7(C)O)[C@]6(O)C[C@@]53O[C@]24O)cc1OC [veratridine]
frequency of contractions (myometrial strips): 0.75 ± 0.09 min⁻¹
mean amplitude of rhythmic contractions during a 10-min period (myometrial strips): 8.48 ± 1.20 mN
minimal effective concentration (uterine strips [1]; Rattus norvegicus, […], non-pregnant rats, undetermined stage of the ovarian cycle): ≥ 10 µM
concentration at which the maximal response was reached (uterine strips [1]; measured during a 60 min application, 1.9 or 1.1 mM Ca2+-containing solution): 60 µM
time the contractile response remained very regular and well maintained after addition (uterine strips [1]; veratridine 60 µM, continuous presence, 24 uterine strips from 12 animals): at least 12 h
